# From patent publication US20220324865A1 (Bayer Aktiengesellschaft, priority 2018, published 2022)
# Biological target: T1, human EP3 receptor (Homo sapiens, UniProt P43115)
# T1 construct: expressed in transfected cells; host or cells: CHO K1 (Chinese Hamster Ovary), stably co-transfected with Galpha16 and mitochondrial clytin
# T1 sequence (P43115 1-390): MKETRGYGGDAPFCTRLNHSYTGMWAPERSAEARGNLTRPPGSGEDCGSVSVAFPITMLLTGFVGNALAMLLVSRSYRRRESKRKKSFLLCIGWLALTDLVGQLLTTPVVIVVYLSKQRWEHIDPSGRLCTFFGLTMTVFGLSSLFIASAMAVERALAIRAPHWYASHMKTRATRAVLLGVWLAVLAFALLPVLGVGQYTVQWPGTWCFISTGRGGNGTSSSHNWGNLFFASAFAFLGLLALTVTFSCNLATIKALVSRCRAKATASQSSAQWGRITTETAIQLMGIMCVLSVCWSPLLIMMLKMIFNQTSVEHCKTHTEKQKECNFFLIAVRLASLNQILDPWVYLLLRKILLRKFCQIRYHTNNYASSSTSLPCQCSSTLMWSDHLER
# Test: Cellular in vitro assay for determining EP3 receptor activity (human EP3 cell line, sulprostone-stimulated calcium luminescence)
# Format: cell-based
# Settings: CHO cells expressing human EP3 and mitochondrial Clytin; antagonist mode, sulprostone at EC50; read-out: EP3 CHO mtCLY ANTAG IC50
# Procedure, shortened: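 CHO K1 cells stably expressing human EP3 with Gα16 and mitochondrial Clytin, loaded overnight with coelenterazine. Compounds added 10 min before sulprostone at its EC50; antagonism read immediately as reduced calcium-driven luminescence, quadruplicate points.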
row,SMILES,IC50
1,"Cc1ccc(-c2cn3nc(C(=O)N[C@H](CCO)c4ccc(F)cc4)c(Cl)c3c(=O)[nH]2)cc1C [Example 1-63, 3-Chloro-6-(3,4-dimethylphenyl)-N-[(1R)-1-(4-fluorophenyl)-3-hydroxypropyl]-4-oxo-4,5-dihydropyrazolo[1,5-a]pyrazine-2-carboxamide]",0.443 nM
2,"COc1ccc(C(C)NC(=O)c2cc3c(=O)[nH]c(-c4ccc5ccccc5n4)cn3n2)cn1 (stereo not shown) [Example 1-106, N-[1-(6-Methoxypyridin-3-yl)ethyl]-4-oxo-6-(quinolin-2-yl)-4,5-dihydropyrazolo[1,5-a]pyrazine-2-carboxamide]",5.65 nM
3,"Cc1cc(-c2cn3nc(C(=O)NC(c4ccc(F)cc4)C4(O)CC4)c(C4CC4)c3c(=O)[nH]2)ccc1F (single isomer, unassigned) [6-652]",10 nM
4,Cc1ccc(-c2cn3nc(C(=O)N[C@H](CCO)c4ccc(F)cc4)c(C(F)(F)F)c3c(=O)[nH]2)cc1Cl [6-196],0.29 nM
5,Cc1ccc(-c2cn3nc(C(=O)NCC(O)C(F)(F)F)c(C(F)(F)F)c3c(=O)[nH]2)cc1C (racemic) [6-115],0.95 nM
6,Cc1cc(-c2cn3nc(C(=O)NCCC(O)C(F)(F)F)c(C4CC4)c3c(=O)[nH]2)ccc1Cl (racemic) [6-309],1.13 nM
7,"N#Cc1c(C(=O)N[C@@H]2CCCc3ccccc32)nn2cc(-c3ccc4ccccc4c3)[nH]c(=O)c12 [Example 3-48, 3-Cyano-6-(naphthalen-2-yl)-4-oxo-N-[(7R)-1,2,3,4-tetrahydronaphthalen-1-yl]-4,5-dihydropyrazolo[1,5-a]pyrazine-2-carboxamide]",5.5 nM
8,CN1CCC(NC(=O)c2nn3cc(-c4ccc5ccccc5c4)[nH]c(=O)c3c2C(F)(F)F)(c2ccc(F)cc2)C1 (racemic) [6-510],8.53 nM
9,"Cc1cccc2ncc(-c3cn4nc(C(=O)NCc5ccc6[nH]c(=O)[nH]c6c5)c(C(C)C)c4c(=O)[nH]3)cc12 [Example 4-80, 6-(5-Methylquinolin-3-yl)-4-oxo-N-[(2-oxo-2,3-dihydro-1H-benzimidazol-5-yl)methyl]-3-(propan-2-yl)-4,5-dihydropyrazolo[1,5-a]pyrazine-2-carboxamide]",1.35 nM
10,Cn1cnc2cc(-c3cn4nc(C(=O)N[C@@H](c5ccc(F)cc5)C(C)(C)O)c(C5CC5)c4c(=O)[nH]3)ccc21 [6-599],2.1 nM
11,COc1ccc(CCNC(=O)c2cc3c(=O)[nH]c(-c4ccc5ccccc5c4)cn3n2)cc1OC [6-75],8.63 nM
12,"Cc1ccc(-c2cn3nc(C(=O)N[C@H](C)c4ccc(F)cc4)c(C#N)c3c(=O)[nH]2)cc1C [Example 1-73, 3-Cyano-6-(3,4-dimethylphenyl)-N-[(1R)-1-(4-fluorophenyl)ethyl]-4-oxo-4,5-dihydropyrazolo-[1,5-a]pyrazine-2-carboxamide]",1.3 nM
13,"O=C(NC(CO)c1ccc(F)cc1)c1cc2c(=O)[nH]c(-c3ccc4ccccc4c3)cn2n1 (stereo not shown) [Example 1-61, N-[1-(4-Fluorophenyl)-2-hydroxyethyl]-6-(2-naphthyl)-4-oxo-5H-pyrazolo[1 ,5-a]pyrazine-2-carboxamide]",4.2 nM
14,Cc1ccc(-c2cn3nc(C(=O)NC4CCN(CC(F)F)C4)c(C4CC4)c3c(=O)[nH]2)cc1C (stereo not shown) [6-453],1.13 nM
15,"CC(C)CN1CC(NC(=O)c2nn3cc(-c4ccc5ccccc5c4)[nH]c(=O)c3c2C(F)(F)F)(c2ccc(F)cc2)C1 [Example 1-128, N-[3-(4-Fluorophenyl)-1-(2-methylpropyl)azetidin-3-yl]-6-(naphthalen-2-yl)-4-oxo-3-(trifluoromethyl)-4,5-dihydropyrazolo[1,5-a]pyrazine-2-carboxamide]",2.9 nM
16,Cc1cc(-c2cn3nc(C(=O)N[C@H](C)C(C)C)c(C4CC4)c3c(=O)[nH]2)ccc1Cl [6-336],3.45 nM
17,"Cc1ccc(-c2cn3nc(C(=O)N[C@H](C)C(C)C)c(C4CC4)c3c(=O)[nH]2)cc1C [Example 1-143, 3-Cyclopropyl-6-(3,4-dimethylphenyl)-N-[(2R)-3-methylbutan-2-yl]-4-oxo-4,5-dihydropyrazolo-[1,5-a]pyrazine-2-carboxamide]",1.5 nM
18,O=C(N[C@@H](c1ccc(F)cc1)C(F)(F)CO)c1nn2cc(-c3ccc(Cl)c(F)c3)[nH]c(=O)c2c1C1CCC1 [6-571],1.5 nM
19,CC(C)c1c(C(=O)N[C@@H](c2ccc(F)cc2)C(C)(C)O)nn2cc(-c3cccc(Cl)c3)[nH]c(=O)c12 [6-683],1.06 nM
20,"O=C(NC1(c2ccc(F)cc2)CN(C(CF)CF)C1)c1nn2cc(-c3ccc4ccccc4c3)[nH]c(=O)c2c1C(F)(F)F [Example 1-177, N-[1-(1,3-Difluoropropan-2-yl)-3-(4-fluorophenyl)azetidin-3-yl]-6-(naphthalen-2-yl)-4-oxo-3-(trifluoro-methyl)-4,5-dihydropyrazolo[1,5-a]pyrazine-2-carboxamide]",5 nM
21,"CC(COc1cc(Cl)cc(Cl)c1)NC(=O)c1nn2cc(-c3ccc4ccccc4c3)[nH]c(=O)c2c1C(F)(F)F (stereo not shown) [Example 1-118, N-[2-(3,5-Dichlorophenoxy)-1-methylethyl]-6-(2-naphthyl)-4-oxo-3-(trifluoromethyl)-5H-pyrazolo-[1,5-a]pyrazine-2-carboxamide]",3.95 nM
22,CCn1nccc1CNC(=O)c1nn2c(C)c(-c3ccc(C)c(C)c3)[nH]c(=O)c2c1C(F)(F)F [6-13],9.3 nM

row,SMILES,IC50
1,"Cc1ccc(-c2cn3nc(C(=O)NCC(O)C(F)(F)F)c(C4CC4)c3c(=O)[nH]2)cc1C (single isomer, unassigned) [6-437]",0.77 nM
2,Cc1ccc(-c2cn3nc(C(=O)N[C@@H](c4ccc(F)cc4)C(C)(C)O)c(C4CC4)c3c(=O)[nH]2)c(F)c1F [6-596],2.8 nM
3,"O=C(NCC(O)C(F)(F)F)c1nn2cc(-c3ccc4c(c3)OCCO4)[nH]c(=O)c2c1C(F)(F)F (single isomer, unassigned) [6-533]",5.55 nM
4,CCn1cc(CNC(=O)c2nn3cc(-c4ccc5ccccc5c4)[nH]c(=O)c3c2Cl)c(C)n1 [6-10],1.4 nM
5,"Cc1ccc(-c2cn3nc(C(=O)NC(C)C4CCC4)c(C(F)(F)F)c3c(=O)[nH]2)cc1Cl (single isomer, unassigned) [6-195]",1.55 nM
6,"O=C(NC(CO)c1cc(Cl)cc(Cl)c1)c1cc2c(=O)[nH]c(-c3ccc4ccccc4c3)cn2n1 (stereo not shown) [Example 2-26, N-[1-(3,5-Dichlorophenyl)-2-hydroxyethyl]-6-(2-naphthyl)-4-oxo-4,5-dihydropyrazolo[1,5-a]pyrazine-2-carboxamide]",2.65 nM
7,"Cc1ccc(-c2cn3nc(C(=O)NC4CCN(CC(F)F)C4)c(C4CC4)c3c(=O)[nH]2)cc1C (single isomer, unassigned) [6-454]",4.75 nM
8,"COc1ccc(C(C)NC(=O)c2nn3cc(-c4cnc5cccc(C)c5c4)[nH]c(=O)c3c2C(C)C)cn1 (stereo not shown) [Example 4-6, 3-Isopropyl-N-[1-(6-methoxy-3-pyridyl)ethyl]-6-(5-methyl-3-quinolyl)-4-oxo-5H-pyrazolo[1,5-a]pyrazine-2-carboxamide]",1.16 nM
9,COc1ccc(C(CCO)NC(=O)c2cc3c(=O)[nH]c(-c4ccc(C(F)(F)F)c(C)c4)cn3n2)cc1 (stereo not shown) [6-31],8.03 nM
10,"CCN1CCC(NC(=O)c2nn3cc(-c4ccc(Cl)c(C)c4)[nH]c(=O)c3c2C2CC2)(C(F)(F)F)C1 (single isomer, unassigned) [6-294]",9.95 nM
11,CN(CCNC(=O)c1nn2cc(-c3ccc4ccccc4c3)[nH]c(=O)c2c1C(F)(F)F)C1CC1 [6-517],4.2 nM
12,"Cc1cc(-c2cn3nc(C(=O)NC(CO)C(F)(F)F)c(C4CC4)c3c(=O)[nH]2)ccc1Cl (single isomer, unassigned) [6-308]",2.55 nM
13,"Cc1ccc(-c2cn3nc(C(=O)NCC(O)C(F)(F)F)c(C(F)(F)F)c3c(=O)[nH]2)cc1Cl (single isomer, unassigned) [6-160]",0.99 nM
14,Cc1ccc(-c2cn3nc(C(=O)N[C@@H](c4ccc(F)cc4)C(C)(C)O)c(C4CC4)c3c(=O)[nH]2)cc1F [Example 1-158],0.983 nM
15,Cc1ccc(-c2cn3nc(C(=O)NCCN(CC(F)F)C4CC4)c(C(F)(F)F)c3c(=O)[nH]2)cc1Cl [6-152],4.75 nM
16,CCN1CCC(NC(=O)c2nn3cc(-c4ccc(Cl)c(C)c4)[nH]c(=O)c3c2C2CC2)(C(F)(F)F)C1 (racemic) [6-292],2.05 nM
17,"Cc1ccc(-c2cn3nc(C(=O)N[C@@H](CCO)c4ccc(F)cc4)cc3c(=O)[nH]2)cc1C [Example 1-70, 6-(3,4-Dimethylphenyl)-N-[(1S)-1-(4-fluorophenyl)-3-hydroxpropyl]-4-oxo-4,5-dihydropyrazolo-[1,5-a]pyrazine-2-carboxamide]",3.15 nM
18,"Cc1c(C(=O)NC(CCO)c2ccccc2Cl)nn2c(C)c(-c3ccc4ccccc4c3)[nH]c(=O)c12 (stereo not shown) [Example 3-68, N-[1-(2-Chlorophenyl)-3-hydroxypropyl]-3,7-dimethyl-6-(2-naphthyl)-4-oxo-5H-pyrazolo[1,5-a]pyrazine-2-carboxamide]",1.85 nM
19,"Cc1cccc2ncc(-c3cn4nc(C(=O)NCC(C)Cn5cccn5)c(C(C)C)c4c(=O)[nH]3)cc12 (stereo not shown) [Example 4-30, 3-Isopropyl-N-[2-methyl-3-(1H-pyrazol-1-yl)propyl]-6-(5-methylquinolin-3-yl)-4-oxo-4,5-dihydropyrazolo[1,5-a]pyrazine-2-carboxamide]",2.7 nM
20,"Cc1ccc(-c2cn3nc(C(=O)NCC(N)C(F)(F)F)c(C4CC4)c3c(=O)[nH]2)cc1F (single isomer, unassigned) [6-396]",3.05 nM
21,Cc1ccc(-c2cn3nc(C(=O)N[C@H](C)C4CC4)c(C4CC4)c3c(=O)[nH]2)cc1Cl [6-283],0.41 nM
